Where “and” joins values, the source holds several entries; their conditions need not be identical. Equal values may be shown once. Read-outs that look alike come from different tables or passages of the source. Values belong to the compound of their own block, whether it stands above or below them. Where a SMILES comes first, the peptide text is derived from it.
Tests used:
[1] = in vivo
[2] = in vitro; conditions: C57/BL6, mouse, plasma
[3] = system: primary mouse spleen B lymphocytes; test: MIF-triggered Transwell chemotaxis of primary splenic B cells; format: cell-based; conditions: 16 nM MIF; peptide at 5-fold molar excess (80 nM);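 note: migration tracked over 4 h at 37 °C, read out as transmigrated cells counted by flow cytometry with absolute counting beads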
Experimental: Briefly, splenic B cells were isolated by negative depletion using a Pan B Cell Isolation Kit (Miltenyi Biotec, Bergisch Gladbach, Germany). […] Chemotaxis was followed for 4 h at 37 °C in a humidified atmosphere of 5% CO2. Migrated cells were counted by flow cytometry using CountBright™ Absolute Counting Beads (Molecular Probes-Invitrogen).

[4] = Circular dichroism (CD) spectroscopy (conformation, concentration dependence); format: physicochemical; conditions: far-UV CD at 1-20 µM, 10 mM sodium phosphate pH 7.4, 1% HFIP; region 210-225 nm; compared with msR4M-L1
Experimental: Briefly, far-UV CD measurements were carried out between 195 and 250 nm. The response time was set at 1 s, intervals at 0.1 nm, and bandwidth at 1 nm. All spectra were measured at RT and represent an average of three recorded spectra. Scans were recorded for the ectodomain mimic peptides at a concentration of 1–20 µM in 10 mM sodium phosphate buffer, pH 7.4, containing 1% HFIP, following dilution of freshly made peptide stock solution in HFIP (4 °C) into the buffer-containing cuvette. […] The background spectrum of buffer/1% HFIP alone was subtracted from the spectra of the peptides.

[5] = in vitro; conditions: human, plasma
[6] = system: primary human monocyte-derived macrophages; test: MIF-mediated DiI-oxLDL uptake / foam cell formation; format: cell-based; conditions: 80 nM MIF; AMD3100 10 µM
Experimental: (§1) After washing with imaging solution (MEM without phenol red containing 30 mM HEPES, 0.5 g/L NaHCO3, pH 7.4, and 0.2% BSA), cells were exposed to 50 µg mL^−1 1,1′-dioctadecyl-3,3,3′3′-tetramethylindocarbocyanine-labeled oxidized LDL (DiI-oxLDL) or DiI-labeled native LDL (DiI-LDL) for 30 min at 4 °C, followed by incubation at 37 °C for 20 min. Cells were washed with ice-cold imaging solution (pH 3.5), fixed, and counter-stained with Hoechst 33258.

[7] = system: primary human monocyte-derived macrophages; test: MIF-mediated DiI-LDL uptake / foam cell formation; format: cell-based; conditions: 80 nM MIF
Experimental: as §1

[8] = target: T1, MIF (Homo sapiens, UniProt P14174); test: Fluorescence spectroscopic titration of CXCR4 ectodomain peptides (and ISO-1) with MIF; format: binding
T1 construct: made in house; host or cells: E. coli BL21/DE3 (pET11b)
T1 sequence (P14174 2-115): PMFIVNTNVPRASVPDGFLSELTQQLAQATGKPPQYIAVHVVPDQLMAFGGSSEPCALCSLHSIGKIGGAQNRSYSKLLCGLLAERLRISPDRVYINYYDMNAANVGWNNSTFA
Experimental: Fluorescence spectroscopic titrations were performed using a JASCO FP-6500 fluorescence spectrophotometer.

[9] = system: pAMPK/AMPK in HCM; test: MIF/CD74-triggered AMPK signaling in human cardiomyocytes (HCM); format: cell-based
Experimental: HCMs (2 × 10^5 per well) were plated in 12-well plates and maintained for 2 days with cultured medium containing 5% FCS. Before stimulation, medium was replaced by fresh myocyte basal medium containing 0.05% FCS and HCMs rested for 16 h. Surface CD74 expression on HCMs was verified by flow cytometry (FITC-conjugated anti-human CD74 (1:100 dilution), FITC-IgG2 (isotype control) (BD Pharmingen), 1 h/4 °C in the dark, BD FACSVerse™ flow cytometer, FlowJo software). […] After treatment, cells were lysed and subjected to SDS-PAGE (10%)/Western blotting using NuPAGE® lithium dodecyl sulfate (LDS)/dithiothreitol (DTT) lysis buffer-containing PhosSTOP^TM reagent (Roche Applied Science). […] Anti-rabbit horse-radish peroxidase (HRP)-conjugated antibody (1:10000, GE Healthcare, Freiburg, Germany) was used for development and signals quantitated by chemiluminescence using an Odyssey® Fc imager. Unprocessed scans of the Western blots are supplied in the Source Data file.

[10] = system: MIF/CD74; conditions: read-out: IC50 value for MIF/CD74 binding; ref [16],[43]; cited from earlier work
Source text: Specificity of the inhib ...

- level at 24 h ([1]; C57/BL6, mouse, 50 ug): > 100 ng/mL
- level at 48 h ([1]; C57BL/6, mouse, ip, 50 ug per mouse): ~100 ng/mL
- half-life at 482 nM [2]: ~1200 min
SMILES: CC[C@H](C)[C@H](NC(=O)[C@H](Cc1ccc(O)cc1)NC(=O)[C@H](CCCNC(=N)N)NC(=O)[C@H](CC(=O)O)NC(=O)CCCCCCCCCCCNC(=O)CCCCCNC(=O)[C@H](CCCCN)NC(=O)[C@H](CS)NC(=O)[C@H](CC(C)C)NC(=O)[C@H](Cc1ccccc1)NC(=O)[C@H](CC(N)=O)NC(=O)CNC(=O)[C@H](Cc1ccccc1)NC(=O)[C@H](Cc1ccc(O)cc1)NC(=O)[C@H](Cc1c[nH]c2ccccc12)NC(=O)[C@H](CC(N)=O)NC(=O)[C@H](C)NC(=O)[C@@H](NC(=O)[C@H](C)NC(=O)[C@H](CC(=O)O)NC(=O)c1ccc2c(c1)C(=O)OC21c2ccc(N(C)C)cc2Oc2cc(N(C)C)ccc21)C(C)C)C(=O)N[C@@H](CS)C(=O)N[C@@H](CC(=O)O)C(=O)N[C@@H](CCCNC(=N)N)C(=O)N[C@@H](Cc1ccccc1)C(=O)N[C@@H](Cc1ccc(O)cc1)C(=O)N1CCC[C@H]1C(=O)N[C@@H](CC(N)=O)C(=O)N[C@@H](CC(=O)O)C(=O)N[C@@H](CC(C)C)C(=O)N[C@@H](Cc1c[nH]c2ccccc12)C(=O)N[C@H](C(N)=O)C(C)C [TAMRA-msR4M-L1]

- aggregation propensity from concentration-dependent CD signal [4]: higher aggregation propensity
SMILES: CC[C@H](C)[C@H](NC(=O)[C@H](Cc1ccc(O)cc1)NC(=O)[C@H](CCCNC(=N)N)NC(=O)[C@H](CC(=O)O)NC(=O)CCCCCCCCCCCNC(=O)COCCOCCNC(=O)[C@H](CCCCN)NC(=O)[C@H](CS)NC(=O)[C@H](CC(C)C)NC(=O)[C@H](Cc1ccccc1)NC(=O)[C@H](CC(N)=O)NC(=O)CNC(=O)[C@H](Cc1ccccc1)NC(=O)[C@H](Cc1ccc(O)cc1)NC(=O)[C@H](Cc1c[nH]c2ccccc12)NC(=O)[C@H](CC(N)=O)NC(=O)[C@H](C)NC(=O)[C@@H](NC(=O)[C@H](C)NC(=O)[C@@H](N)CC(=O)O)C(C)C)C(=O)N[C@@H](CS)C(=O)N[C@@H](CC(=O)O)C(=O)N[C@@H](CCCNC(=N)N)C(=O)N[C@@H](Cc1ccccc1)C(=O)N[C@@H](Cc1ccc(O)cc1)C(=O)N1CCC[C@H]1C(=O)N[C@@H](CC(N)=O)C(=O)N[C@@H](CC(=O)O)C(=O)N[C@@H](CC(C)C)C(=O)N[C@@H](Cc1c[nH]c2ccccc12)C(=O)N[C@H](C(N)=O)C(C)C [msR4M-L2]
- inhibition of MIF-mediated B-cell chemotaxis [3]: fully blocked

- remaining at 16 h, 13.7 µM [5]: ~45%
SMILES: CC[C@H](C)[C@H](NC(=O)[C@H](Cc1ccc(O)cc1)NC(=O)[C@H](CCCNC(=N)N)NC(=O)[C@H](CC(=O)O)NC(=O)CCCCCCCCCCCNC(=O)CCCCCNC(=O)[C@H](CCCCN)NC(=O)[C@H](CS)NC(=O)[C@H](CC(C)C)NC(=O)[C@H](Cc1ccccc1)NC(=O)[C@H](CC(N)=O)NC(=O)CNC(=O)[C@H](Cc1ccccc1)NC(=O)[C@H](Cc1ccc(O)cc1)NC(=O)[C@H](Cc1c[nH]c2ccccc12)NC(=O)[C@H](CC(N)=O)NC(=O)[C@H](C)NC(=O)[C@@H](NC(=O)[C@H](C)NC(=O)[C@H](CC(=O)O)NC(=O)CCCCCNC(=O)CCCC[C@@H]1SC[C@@H]2NC(=O)N[C@@H]21)C(C)C)C(=O)N[C@@H](CS)C(=O)N[C@@H](CC(=O)O)C(=O)N[C@@H](CCCNC(=N)N)C(=O)N[C@@H](Cc1ccccc1)C(=O)N[C@@H](Cc1ccc(O)cc1)C(=O)N1CCC[C@H]1C(=O)N[C@@H](CC(N)=O)C(=O)N[C@@H](CC(=O)O)C(=O)N[C@@H](CC(C)C)C(=O)N[C@@H](Cc1c[nH]c2ccccc12)C(=O)N[C@H](C(N)=O)C(C)C [biotin-msR4M-L1]

SMILES: c1cc(CN2CCCNCCNCCCNCC2)ccc1CN1CCCNCCNCCCNCC1 [AMD3100]
- effect on MIF-mediated DiI-oxLDL uptake [6]: blocked
- DiI-LDL uptake (rel. units), MIF + AMD3100 ([7]; control ~1, MIF alone 2.09-3.63, individual experiments (four-times-two)): 0.6486 and 2.2972 and 2.822 and 1.2299 and 1.463 and 1.618 and 1.791 and 1.537

- Kd [8]: > 1000 nM
- Kd ([8]; App. Kd Fluos-peptide/MIF, 1st curve, fluorescence spectroscopy, replicate 1): > 1000 nM
- Kd ([8]; App. Kd Fluos-peptide/MIF, 2nd curve, fluorescence spectroscopy, replicate 2): > 1000 nM
- Kd ([8]; App. Kd Fluos-peptide/MIF, 3rd curve, fluorescence spectroscopy, replicate 3): > 1000 nM
- Kd ([8]; app. KD Fluos-labeled alanine analog/MIF, fluorescence titration spectroscopy, n=3): > 1000 nM
SMILES: CC[C@H](C)[C@H](NC(=O)[C@H](Cc1ccc(O)cc1)NC(=O)[C@H](CCCNC(=N)N)NC(=O)[C@H](CC(=O)O)NC(=O)CCCCCCCCCCCNC(=O)CCCCCNC(=O)[C@H](CCCCN)NC(=O)[C@H](CS)NC(=O)[C@H](CC(C)C)NC(=O)[C@H](C)NC(=O)[C@H](CC(N)=O)NC(=O)CNC(=O)[C@H](C)NC(=O)[C@H](C)NC(=O)[C@H](C)NC(=O)[C@H](CC(N)=O)NC(=O)[C@H](C)NC(=O)[C@@H](NC(=O)[C@H](C)NC(=O)[C@@H](N)CC(=O)O)C(C)C)C(=O)N[C@@H](CS)C(=O)N[C@@H](CC(=O)O)C(=O)N[C@@H](CCCNC(=N)N)C(=O)N[C@@H](C)C(=O)N[C@@H](C)C(=O)N1CCC[C@H]1C(=O)N[C@@H](CC(N)=O)C(=O)N[C@@H](CC(=O)O)C(=O)N[C@@H](CC(C)C)C(=O)N[C@@H](C)C(=O)N[C@H](C(N)=O)C(C)C [msR4M-L1(7xAla)] (HELM PEPTIDE1{D.A.V.A.N.A.A.A.G.N.A.L.C.K.[O=C(CCCCCN[*:1])[*:2]].[O=C(CCCCCCCCCCCN[*:1])[*:2]].D.R.Y.I.C.D.R.A.A.P.N.D.L.A.V.[am]}$$$$V2.0)
- inhibition of MIF-mediated B-cell chemotaxis [3]: failed to inhibit
- inhibition of MIF-mediated DiI-LDL uptake [7]: failed to inhibit

SMILES: COC(=O)CC1CC(c2ccc(O)cc2)=NO1 (centres unmarked) [ISO-1]
- Fig. 4e, Mean Diff, (Tukey's multiple comparisons test) ([9]; B-C: MIF alone vs. MIF + ISO-1 3.1): 0.3348
- Fig. 4e, Mean Diff, (Tukey's multiple comparisons test) ([9]; B-D: MIF alone vs. MIF + ISO-1 15.6): 0.4593
- Fig. 4e, Mean Diff, (Tukey's multiple comparisons test) ([9]; B-E: MIF alone vs. MIF + ISO-1 31.3): 0.6907
- Fig. 4e, Mean Diff, (Tukey's multiple comparisons test) ([9]; B-F: MIF alone vs. MIF + ISO-1 62.5): 0.8729
- IC50 [10]: 10 µM

Reference: article PMC7689490, “Designed CXCR4 mimic acts as a soluble chemokine receptor that blocks atherogenic inflammation by agonist-specific targeting” (Nature Communications, 2020)
